The text below walks through data of patent US9314540B2, “Compounds for use in imaging, diagnosing and/or treatment of diseases of the central nervous system” (PIRAMAL IMAGING SA, priority 2010, dated 2016).

Data set [1] addresses T1, human MAO-B (Homo sapiens, UniProt P27338).
T1 construct: purchased Sigma; host or cells: insect cells infected with recombinant baculovirus
T1 sequence (P27338 1-520): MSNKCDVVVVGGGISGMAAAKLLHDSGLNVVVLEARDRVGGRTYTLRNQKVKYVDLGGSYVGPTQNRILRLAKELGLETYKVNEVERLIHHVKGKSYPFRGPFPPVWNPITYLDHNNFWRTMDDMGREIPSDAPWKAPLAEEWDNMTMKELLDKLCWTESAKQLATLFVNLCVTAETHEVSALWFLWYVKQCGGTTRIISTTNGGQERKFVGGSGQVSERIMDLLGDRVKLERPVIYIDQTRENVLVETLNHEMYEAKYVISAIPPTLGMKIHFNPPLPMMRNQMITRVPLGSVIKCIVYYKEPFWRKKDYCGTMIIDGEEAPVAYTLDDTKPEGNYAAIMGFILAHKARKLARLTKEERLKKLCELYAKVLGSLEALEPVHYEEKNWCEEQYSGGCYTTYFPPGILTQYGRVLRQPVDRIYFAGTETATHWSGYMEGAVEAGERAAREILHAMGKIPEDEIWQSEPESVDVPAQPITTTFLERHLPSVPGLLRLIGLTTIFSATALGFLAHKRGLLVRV
The data set is described as follows: Amplex Red Monoamine Oxidase Assay-Kit, MAO-B affinity. Type of data set: biochemical. Particulars: human MAO-B from baculovirus-infected insect cells; read-out: affinity towards MAO-B, IC50. As to the method: [^19F] […] This was determined by incubating human MAO-B prepared from insect cells infected with recombinant baculovirus containing respective cDNA inserts (Sigma) with respective reagents of the Amplex Red Monoamine Oxidase Assay-Kit (Molecular Probes).

The target of data set [2] is T2, MAO-A (Homo sapiens, UniProt P21397).
T2 sequence (P21397 1-527): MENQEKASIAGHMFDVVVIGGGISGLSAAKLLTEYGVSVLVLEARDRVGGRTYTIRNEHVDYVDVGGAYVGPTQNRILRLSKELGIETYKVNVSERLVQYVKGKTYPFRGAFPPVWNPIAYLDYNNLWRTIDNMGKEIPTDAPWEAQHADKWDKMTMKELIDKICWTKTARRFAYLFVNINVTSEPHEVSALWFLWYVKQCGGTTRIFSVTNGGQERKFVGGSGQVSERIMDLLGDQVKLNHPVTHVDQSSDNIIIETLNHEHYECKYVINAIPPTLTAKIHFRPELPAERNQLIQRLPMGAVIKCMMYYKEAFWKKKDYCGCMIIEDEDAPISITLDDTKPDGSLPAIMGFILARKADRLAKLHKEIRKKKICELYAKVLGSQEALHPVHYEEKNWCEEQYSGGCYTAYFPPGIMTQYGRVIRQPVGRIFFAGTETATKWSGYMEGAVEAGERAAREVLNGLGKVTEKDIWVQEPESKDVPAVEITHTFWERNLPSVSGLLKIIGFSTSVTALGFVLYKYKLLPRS
The data set is described as follows: Amplex Red Monoamine Oxidase Assay-Kit, MAO-A affinity. Type of data set: biochemical. The settings on record: read-out: affinity towards MAO-A.

Data set [3] can be described thus: In vitro metabolite profile in liver microsomes and hepatocytes (LC/MS). Type of data set: in vitro ADME, rat, mouse and human. Particulars: for oxidation at the propargyl moiety (M-7) as additional metabolic pathway: microsome and hepatocyte incubations; for major metabolic pathway: rat, mouse and human liver microsomes, human and rat hepatocytes. The text has this:
FIG. 9: In vitro metabolite pathways in rat, mouse, dog, monkey and human microsomes and rat and human heaptocyte preparations. The metabolites were detected by LC/MS. (a) Metabolite pathways of non-deuterated [^18F] Deprenyl and (b) Metabolite pathways of [^18F] D2 Deprenyl.
[^18F] D2 Deprenyl and [^19F] D2 Deprenyl have been investigated regarding their metabolic properties in vitro and in vivo. […] D2 Deprenyl (FIG. 9).
Background: Microsomes from liver hold many membrane-bound enzymes, among them those of drug oxidation.

The nature of data set [4]: Plasma radioactivity and metabolite profile over time in cynomolgus monkey plasma. The class given is in vivo. The text has this: D2 Deprenyl and non-deuterated [^18F] Deprenyl in cynomolgus monkey plasma.
D2 Deprenyl and (b) non-deuterated [^18F] Deprenyl in cynomolgus monkey plasma. The time course of the parent compounds as well as metabolites expressed in [area %] generated from respective HPLC chromatograms are shown.
Plasma radioactivity metabolic profiles have been monitored over time for [^18F] D2 Deprenyl compared to the non-deuterated [^18F] Deprenyl in cynomolgus monkey plasma (FIG. 3). […] D2 Deprenyl in plasma the radioactivity for [^18F] D2 Deprenyl was 18% and 31% higher as observed for [^18F] Deprenyl at the 30 and 60 min time points, respectively (FIG. 3). In addition, metabolites occurring in cynomolgus monkey plasma over time have been monitored for both ligands (FIG. 4). […] Deprenyl. Specifically metabolite M1 was less produced (FIG. 4a). In addition, time activity curves (TAC) of [^18F] […] This gives more flexibility regarding quantification of the PET data and is, thus, an advantage.

Data set [5] in a line: Biodistribution in NMRI mice, brain radioactivity by gamma counter. The class given is in vivo. The settings on record: for brain uptake of radioactivity (peak): 2 min p.i. The method, then: FIG. 1: Distribution of [^18F] D2 Deprenyl (compound of Example 3) detected via a gamma-detector is shown in a time frame of 4 hours in mouse brains (n=3).
Biodistribution of [^18F] D2 Deprenyl (compound of Example 3) was investigated in NMRI mice weighing 31.1-38.5 g at seven time points. For each time point 3 mice were used. The mice were injected each with 0.256 MBq [^18F] D2 Deprenyl. After the respective time points the mice were sacrificed, the organs taken out and measured in a gamma counter. The results were decay corrected. […] Unexpectedly, the elimination ratio defined by peak uptake at 2 min to uptake at 30 min was 4.2 times. This is improved over the non-deuterated compound where said ratio was 3.6 (Peak: 7.5±0.04% ID/g at 2 min p.i. and 2.10±0.33% ID/g at 30 min p.i.) and will add to a better brain image quality. Therefore, an improved diagnostic performance can be expected.

`[2H]C([2H])(C#C)N(C)[C@H](CF)Cc1ccccc1` [[^19F] D2 Deprenyl, N-[(2S)-1-fluoro-3-phenylpropan-2-yl]-N-methyl(1,1-^2H)prop-2-yn-1-amine]: the IC50 in data set [1] turned out to be 41.3 nM. For the same compound, in data set [2], the IC50 is more than 2000 nM. For the same compound, in data set [3], the “oxidation at the propargyl moiety (M-7) as additional metabolic pathway” value is “not detectable any more” and the major metabolic pathway result is “N-dealkylation”.
`[2H]C([2H])(C#C)N(C)[C@H](CF)Cc1ccccc1` [[^18F] D2 Deprenyl, N-[(2S)-1-[^18F]fluoro-3-phenylpropan-2-yl]-N-methyl(1,1-^2H2)— prop-2-yn-1-amine]: in data set [4], the “formation of metabolite M1 compared to non-deuterated [18F] Deprenyl” value was “less produced” and the “stability in plasma compared to non-deuterated [18F] Deprenyl” value is listed as “more stable”. Moreover, in data set [4] (30 min), the “plasma radioactivity higher than for [18F] Deprenyl” value is reported as 18%. Also, in data set [4] (60 min), the “plasma radioactivity higher than for [18F] Deprenyl” value amounted to 31%. In data set [5], the “elimination ratio, peak uptake at 2 min to uptake at 30 min” value was 4.2 and the “brain uptake of radioactivity (peak)” value turned out to be 6.03±1.09 % ID/g. Also, in data set [5] (30 min p.i.), the brain radioactivity turned out to be 1.44±0.15 % ID/g. Besides, the brain radioactivity in data set [5] (4 hours p.i.) was 0.91±0.09 % ID/g.
Take `C#CCN(C)[C@H](C[18F])Cc1ccccc1` [non-deuterated compound, reference compound]: in data set [5], the “elimination ratio, peak uptake at 2 min to uptake at 30 min” value turned out to be 3.6 and the “brain uptake of radioactivity (peak)” value was 7.5±0.04 % ID/g. Also, in data set [5] (30 min p.i.), the brain radioactivity turned out to be 2.10±0.33 % ID/g. Further, in data set [3], the “oxidation at the propargyl moiety (M-7) as additional metabolic pathway” value is on record as “observed” and the major metabolic pathway entry is given as “N-dealkylation”.
